The record followed here is ChEMBL document CHEMBL2016509, “Design, synthesis and cytotoxic activities of novel hybrid compounds between 2-phenylbenzofuran and imidazole” (Bioorg Med Chem Lett, 2012).

Structures are written as SMILES.

In one assay the test system is SW480. Put plainly: Cytotoxicity against human SW480 cells after 48 hrs by MTT assay. The format is functional, cell-based. The conditions noted are these: SW480, 48 h. In general terms: Formazan colour is commonly taken as a measure of viable cells.
For `c1ccc2oc(-c3ccc(-n4ccnc4)cc3)cc2c1`, the 50% inhibitory concentration (IC50) was greater than 40 µM.
For the compound `c1ccc(C[n+]2ccn(-c3ccc(-c4cc5ccccc5o4)cc3)c2)cc1`, it took 19.9 µM to reach half-maximal inhibition (IC50).
Turning to `Brc1ccccc1C[n+]1ccn(-c2ccc(-c3cc4ccccc4o3)cc2)c1`, the IC50 stood at 12.7 µM.
`C=CC[n+]1ccn(-c2ccc(-c3cc4ccccc4o3)cc2)c1` displayed an IC50 greater than 40 µM.
On the same count and under the same terms, for `CCCC[n+]1ccn(-c2ccc(-c3cc4ccccc4o3)cc2)c1` the value was greater than 40 µM; for `O=C(C[n+]1ccn(-c2ccc(-c3cc4ccccc4o3)cc2)c1)c1ccccc1`, 10.3 µM.
The compound `O=C(C[n+]1ccn(-c2ccc(-c3cc4ccccc4o3)cc2)c1)c1ccc(O)cc1` gave an IC50 greater than 40 µM.
In turn, `COc1ccc(C(=O)C[n+]2ccn(-c3ccc(-c4cc5ccccc5o4)cc3)c2)cc1` registered an IC50 of 6.93 µM.
With `O=C(C[n+]1ccn(-c2ccc(-c3cc4ccccc4o3)cc2)c1)c1ccc(F)cc1`, the IC50 was 16.8 µM.
On to `O=C(C[n+]1ccn(-c2ccc(-c3cc4ccccc4o3)cc2)c1)c1ccc(Br)cc1`, for which the IC50 was 2.85 µM.
With `O=C(C[n+]1ccn(-c2ccc(-c3cc4ccccc4o3)cc2)c1)c1ccc2ccccc2c1.[Br-]`, the IC50 was determined as 3.38 µM.
In turn, `O=C(c1ccccc1)C(c1ccccc1)[n+]1ccn(-c2ccc(-c3cc4ccccc4o3)cc2)c1` (stereo unspecified) had an IC50 of 6.93 µM.

For another assay, the system named is A549. Kind of assay: Cytotoxicity against human A549 cells after 48 hrs by MTT assay. It counts as functional, cell-based. The settings on record: A549, 48 h.
`c1ccc2oc(-c3ccc(-n4ccnc4)cc3)cc2c1` gave an IC50 greater than 40 µM.
`c1ccc(C[n+]2ccn(-c3ccc(-c4cc5ccccc5o4)cc3)c2)cc1` showed an IC50 of 25.4 µM.
In turn, `Brc1ccccc1C[n+]1ccn(-c2ccc(-c3cc4ccccc4o3)cc2)c1` yielded an IC50 of 9.77 µM.
Compound `C=CC[n+]1ccn(-c2ccc(-c3cc4ccccc4o3)cc2)c1` yielded an IC50 of 33.5 µM.
For the compound `CCCC[n+]1ccn(-c2ccc(-c3cc4ccccc4o3)cc2)c1`, half-maximal inhibition (IC50) was put at 21.7 µM.
The compound `O=C(C[n+]1ccn(-c2ccc(-c3cc4ccccc4o3)cc2)c1)c1ccccc1` had an IC50 of 12.9 µM.
Still for that read-out and setting: then `O=C(C[n+]1ccn(-c2ccc(-c3cc4ccccc4o3)cc2)c1)c1ccc(O)cc1`, with greater than 40 µM.
As for `COc1ccc(C(=O)C[n+]2ccn(-c3ccc(-c4cc5ccccc5o4)cc3)c2)cc1`, the IC50 is 9.79 µM.
The same measure, in the same setting: then `O=C(C[n+]1ccn(-c2ccc(-c3cc4ccccc4o3)cc2)c1)c1ccc(F)cc1`, with 19.7 µM; and `O=C(C[n+]1ccn(-c2ccc(-c3cc4ccccc4o3)cc2)c1)c1ccc(Br)cc1`, with 8.46 µM; and `O=C(C[n+]1ccn(-c2ccc(-c3cc4ccccc4o3)cc2)c1)c1ccc2ccccc2c1.[Br-]`, with 10.9 µM.
In the case of `O=C(c1ccccc1)C(c1ccccc1)[n+]1ccn(-c2ccc(-c3cc4ccccc4o3)cc2)c1` (stereo unspecified), the IC50 came to 6.79 µM.

Another assay deals with HL-60. Kind of assay: Cytotoxicity against human HL60 cells after 48 hrs by MTT assay. The settings on record: HL-60, 48 h. It counts as functional, cell-based.
`c1ccc2oc(-c3ccc(-n4ccnc4)cc3)cc2c1` returned an IC50 greater than 40 µM.
For the compound `c1ccc(C[n+]2ccn(-c3ccc(-c4cc5ccccc5o4)cc3)c2)cc1`, the midpoint of inhibition, the IC50, lay at 5.37 µM.
The compound `Brc1ccccc1C[n+]1ccn(-c2ccc(-c3cc4ccccc4o3)cc2)c1` had an IC50 of 1.97 µM.
The same measure, in the same setting: for `C=CC[n+]1ccn(-c2ccc(-c3cc4ccccc4o3)cc2)c1` the value was 14.5 µM; for `CCCC[n+]1ccn(-c2ccc(-c3cc4ccccc4o3)cc2)c1`, 11.8 µM; for `O=C(C[n+]1ccn(-c2ccc(-c3cc4ccccc4o3)cc2)c1)c1ccccc1`, 2.61 µM.
`O=C(C[n+]1ccn(-c2ccc(-c3cc4ccccc4o3)cc2)c1)c1ccc(O)cc1` registered a half-maximal inhibitory concentration (IC50) greater than 40 µM.
In turn, `COc1ccc(C(=O)C[n+]2ccn(-c3ccc(-c4cc5ccccc5o4)cc3)c2)cc1` gave an IC50 of 2.26 µM.
`O=C(C[n+]1ccn(-c2ccc(-c3cc4ccccc4o3)cc2)c1)c1ccc(F)cc1` came in with an IC50 of 12.3 µM.
For `O=C(C[n+]1ccn(-c2ccc(-c3cc4ccccc4o3)cc2)c1)c1ccc(Br)cc1`, inhibition was half-maximal at 3.15 µM (IC50).
The compound `O=C(C[n+]1ccn(-c2ccc(-c3cc4ccccc4o3)cc2)c1)c1ccc2ccccc2c1.[Br-]` had an IC50 of 2.49 µM.
For the compound `O=C(c1ccccc1)C(c1ccccc1)[n+]1ccn(-c2ccc(-c3cc4ccccc4o3)cc2)c1` (stereo unspecified), the IC50 is 2.7 µM.

The next assay has as its system SMMC-7721. Kind of assay: Ratio of DDP IC50 to compound IC50 for human SMMC7721 cells. The format is functional.
Settings: not given
Turning to `O=C(C[n+]1ccn(-c2ccc(-c3cc4ccccc4o3)cc2)c1)c1ccc2ccccc2c1.[Br-]`, the “Ratio IC50” value was determined as 5.4.

The next assay has as its system SMMC-7721. Put plainly: Cytotoxicity against human SMMC7721 cells after 48 hrs by MTT assay. The format is functional, cell-based. The settings on record: SMMC-7721, 48 h.
The compound `c1ccc2oc(-c3ccc(-n4ccnc4)cc3)cc2c1` registered an IC50 greater than 40 µM.
With `c1ccc(C[n+]2ccn(-c3ccc(-c4cc5ccccc5o4)cc3)c2)cc1`, the IC50 was 15.1 µM.
`Brc1ccccc1C[n+]1ccn(-c2ccc(-c3cc4ccccc4o3)cc2)c1` gave an IC50 of 4.38 µM.
The compound `C=CC[n+]1ccn(-c2ccc(-c3cc4ccccc4o3)cc2)c1` came in with an IC50 of 27 µM.
The same measure, in the same setting: then `CCCC[n+]1ccn(-c2ccc(-c3cc4ccccc4o3)cc2)c1`, with 12.7 µM.
For `O=C(C[n+]1ccn(-c2ccc(-c3cc4ccccc4o3)cc2)c1)c1ccccc1`, 3.71 µM corresponded to half-maximal inhibition (IC50).
The compound `O=C(C[n+]1ccn(-c2ccc(-c3cc4ccccc4o3)cc2)c1)c1ccc(O)cc1` showed an IC50 greater than 40 µM.
As for `COc1ccc(C(=O)C[n+]2ccn(-c3ccc(-c4cc5ccccc5o4)cc3)c2)cc1`, half-maximal inhibition (IC50) was put at 3.71 µM.
`O=C(C[n+]1ccn(-c2ccc(-c3cc4ccccc4o3)cc2)c1)c1ccc(F)cc1` showed an IC50 of 13.5 µM.
Regarding `O=C(C[n+]1ccn(-c2ccc(-c3cc4ccccc4o3)cc2)c1)c1ccc(Br)cc1`, inhibition was half-maximal at 3.39 µM (IC50).
Same read-out and setting: then `O=C(C[n+]1ccn(-c2ccc(-c3cc4ccccc4o3)cc2)c1)c1ccc2ccccc2c1.[Br-]`, with 1.65 µM.
Compound `O=C(c1ccccc1)C(c1ccccc1)[n+]1ccn(-c2ccc(-c3cc4ccccc4o3)cc2)c1` (stereo unspecified) came in with an IC50 of 3.31 µM.

The subject of a further assay is MCF7. Put plainly: Cytotoxicity against human MCF7 cells after 48 hrs by MTT assay. The format is functional, cell-based. The settings on record: MCF7, 48 h.
With `c1ccc2oc(-c3ccc(-n4ccnc4)cc3)cc2c1`, the IC50 was greater than 40 µM.
Compound `c1ccc(C[n+]2ccn(-c3ccc(-c4cc5ccccc5o4)cc3)c2)cc1` came in with an IC50 of 26.9 µM.
Still for that read-out and setting: for `Brc1ccccc1C[n+]1ccn(-c2ccc(-c3cc4ccccc4o3)cc2)c1` the value was 14.3 µM; for `C=CC[n+]1ccn(-c2ccc(-c3cc4ccccc4o3)cc2)c1`, 13.7 µM.
Same read-out and setting: for `CCCC[n+]1ccn(-c2ccc(-c3cc4ccccc4o3)cc2)c1` the value was 31.4 µM; for `O=C(C[n+]1ccn(-c2ccc(-c3cc4ccccc4o3)cc2)c1)c1ccccc1`, 11.9 µM.
For `O=C(C[n+]1ccn(-c2ccc(-c3cc4ccccc4o3)cc2)c1)c1ccc(O)cc1`, the IC50 is greater than 40 µM.
The same measure, in the same setting: for `COc1ccc(C(=O)C[n+]2ccn(-c3ccc(-c4cc5ccccc5o4)cc3)c2)cc1` the value was 11.3 µM; for `O=C(C[n+]1ccn(-c2ccc(-c3cc4ccccc4o3)cc2)c1)c1ccc(F)cc1`, 16.7 µM.
Regarding `O=C(C[n+]1ccn(-c2ccc(-c3cc4ccccc4o3)cc2)c1)c1ccc(Br)cc1`, the IC50 was 2.84 µM.
`O=C(C[n+]1ccn(-c2ccc(-c3cc4ccccc4o3)cc2)c1)c1ccc2ccccc2c1.[Br-]` showed an IC50 of 5.87 µM.
Turning to `O=C(c1ccccc1)C(c1ccccc1)[n+]1ccn(-c2ccc(-c3cc4ccccc4o3)cc2)c1` (stereo unspecified), the midpoint of inhibition, the IC50, lay at 6.9 µM.

By IC50 is commonly meant the concentration that inhibits the measured activity by half. Lower therefore signals inhibition by little substance.
